As a reminder, the Km is the concentration of substrate that gives half-maximal velocity. As a reminder, the kcat is the maximal rate divided by the concentration of active sites.

Drawing on publication PMC5832847, “Rapid measurement of inhibitor binding kinetics by isothermal titration calorimetry” (Nature Communications, 2018), this text covers Km, kcat and ΔHcat for one substance.

This experiment concerns the target T1, prolyl oligopeptidase (POP) (Homo sapiens, UniProt P48147).
T1 construct: made in house; host or cells: E. coli BL21
T1 sequence (P48147 1-710): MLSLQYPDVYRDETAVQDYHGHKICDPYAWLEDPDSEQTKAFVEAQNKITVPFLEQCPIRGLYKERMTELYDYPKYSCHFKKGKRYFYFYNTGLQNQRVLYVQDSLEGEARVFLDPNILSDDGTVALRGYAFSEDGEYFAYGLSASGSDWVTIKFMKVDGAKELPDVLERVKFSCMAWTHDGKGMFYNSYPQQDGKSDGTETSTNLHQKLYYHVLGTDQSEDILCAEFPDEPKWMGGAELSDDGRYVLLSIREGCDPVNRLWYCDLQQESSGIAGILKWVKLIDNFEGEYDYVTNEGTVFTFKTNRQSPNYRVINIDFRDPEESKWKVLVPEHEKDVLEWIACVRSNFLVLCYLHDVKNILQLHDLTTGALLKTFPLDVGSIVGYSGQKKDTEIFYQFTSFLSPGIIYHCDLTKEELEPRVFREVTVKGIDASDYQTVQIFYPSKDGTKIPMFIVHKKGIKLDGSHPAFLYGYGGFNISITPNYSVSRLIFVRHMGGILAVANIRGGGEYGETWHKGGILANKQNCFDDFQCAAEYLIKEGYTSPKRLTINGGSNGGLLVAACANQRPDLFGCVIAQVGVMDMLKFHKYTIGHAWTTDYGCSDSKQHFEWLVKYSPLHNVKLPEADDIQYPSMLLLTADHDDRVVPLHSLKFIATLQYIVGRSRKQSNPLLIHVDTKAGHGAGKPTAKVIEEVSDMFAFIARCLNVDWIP
The experiment can be described thus: ITC enthalpy of catalysis and Michaelis-Menten parameters with TRH. In kind it is biochemical. Particulars: 30 °C. On the procedure:
Prolyl oligopeptidase enthalpy of catalysis and Michaelis-Menten parameters.
Supplementary Figure 3. Prolyl oligopeptidase and TRH enthalpy of catalysis. 3 injections (15 µL over 30 s) of Thyrotropin-releasing Hormone (TRH) (5.5 mM in syringe) into cell containing POP (250 nM in Cell) at 30 °C in buffer described above. Experiment was carried out using a Malvern VP -ITC.
Supplementary Figure 4. Michaelis-Menten plot for prolyl oligopeptidase with TRH. 5 injections (8 µL, 6 […]
Thyrotropin -releasing Hormone (TRH) (27.6 mM in syringe) into cell containing POP (2.5 nM in Cell) at 30 °C in buffer described above. The enzyme velocity at several concentrations of substrate (black ope n circles) was extracted using the methods described in 13 and fit to Michaelis-Menten kinetics (blue curve).
Experiment was carried out in Malvern VP -ITC. […]
Supplementary Table 1. Summary of prolyl oligopeptidase 13 enzyme parameters with TRH. Determined by ITC using techniques presented by Gomez et al.
Enthalpy of binding in kinetics of inhibition and initiation experiments . In the kinetics of inhibition and initiation experiments performed here, the instrument measures both the heat generated by enzymatic catalysis and the heat produced due direct interaction of the inhibitor with the enzyme. In order to estimate the relative magnitudes of these two effects, the enthalpy of binding was directly measured […]
1000-fold greater, 5 µM) than those used in kinetics of inhibition and initiation experiments (Supplementary Fig. 5 ). Binding data were then modelled at the concentrations of enzyme and inhibitor and injection size and spacing used for the kinetic experiment for compound 5, with representative instrumental noise estimated from the basel ines, ΔHbind taken from Supplementary Table 2 and Ki taken as a previously reported value (0.5 nM) 14 (Supplementary Fig. 6).
Supplementary Figure 5. Compound 5 prolyl o ligopeptidase binding experiments. Compound 5 (90 µM) was titrated into 5 µM POP in cell using a Malvern ITC-200 calorimeter. […]

For the substance thyrotropin-releasing hormone [TRH], the Km was 975 µM, the kcat turned out to be 42.19 s⁻¹ and the ΔHcat is -6.72 ± 0.06 kcal/mol.
